# Test results: article PMC8813803 (Clinical Pharmacokinetics, 2021)
# Legend:
# [1] = test system: liver uptake transporters; experiment: Liver uptake transporter substrate status; assay type: in vitro ADME
# [2] = Clinical ADME study NCT03315559; assay type: in vivo; details: human; set from Fg 0.83 of clinical study 206764
# [3] = in words; cited from earlier work
# [4] = human, cited from earlier work
# [5] = in words; cited from earlier work; remark: listed apart in the source
# [6] = in words; cited from earlier work; remark: listed apart in the source
smiles,measurement,setting,value
"CC(C)N1CCN(Cc2cnc(-c3cc(-c4cccc5[nH]ccc45)cc4[nH]ncc34)o2)CC1 [nemiralisib, Nemiralisib]",Substrate of liver uptake transporters,[1],not a substrate
same,Intestinal FPE (first-pass extraction),[2],17%
same,Solubility,[3],reasonable
same,Fg (fraction escaping gut wall metabolism),[4]; clinical study 206764 (NCT03315559),0.83
same,Volume of distribution at steady state,[4]; intravenous dosing,approximately 10 L/kg
same,tmax (time of maximum plasma concentration),[4]; oral dose,6 h
same,Oral bioavailability,[4],35%
same,Permeability,[5],high
same,Rat lung tissue binding,[6],high
